Read-outs that look alike come from different tables or passages of the source. *1 amine or outer side, *2 acyl side, *3 side chain or, on linkers, in order; H or OH if unused. Where a SMILES comes first, the peptide text is derived from it. Bridges are numbered along the chain shown (N, C = ends). Roman numbers before positions name the chains, in order. [ ]: non-standard residue; d: D form. Actinocin(9to1) = Cc1c2oc3c(C)ccc(C(=O)[*:1])c3nc-2c(C(=O)[*:2])c(N)c1=O; NMeV = CN[C@H](C(=O)O)C(C)C; Sar = CNCC(=O)O
Experiments:
[1] = tested on: zebra mussels (Dreissena polymorpha); details: cited from earlier work
[2] = tested on: scallop Patinopecten yessoensis; details: intragonadal injection; cited from earlier work
[3] = tested on: pieces of ovary from the scallop; details: cited from earlier work
oysters = assay: Presence of prominent genital canals 14 days after estradiol-17β injection; assay type: in vivo, Crassostrea virginica; details: after 14 days, May
Method: In another experiment, conducted in May in Grand Isle, La., animals were injected either with 0 (control), 37.5 ng/g, or 74 ng/g of estradiol-17β. After 14 days, animals were evaluated using the traditional methodology of assaying the presence of prominent genital canals, indicative of mature animals that are ready to spawn. These animals were not subjected to serotonin treatment, but rather were sacrificed for histological examination to establish a somatic-gonadal ratio index. […] Data analysis was performed using GraphPad InStat software. The data reported in Table 2 are conservative, in the following sense: During the trial period, the water temperature decreased from 23° C. to 18° C., and then increased to 22° C., all within a thirty-six hour period. Such a temperature change is alone often sufficient to trigger spawning in the wild.

C. virginica = assay: Spawning response of estradiol-17β-injected oysters to serotonin stimulus after normal spawning season; assay type: in vivo, Crassostrea virginica
Method: A series of initial experiments assayed the response of C. virginica to low doses of estradiol-17β. These trials were undertaken in August and September, at the end of the normal maturation and spawning season of this species on the Gulf coast. Experiments typically ran for two weeks following the injection of a single dose of estradiol-17β into the […] muscle. (Injections were made through a small hole drilled in the shell.) The estradiol dosage for each animal was calculated based on wet body tissue mass of the whole animal, as estimated from its shell length. (These estimates were based on linear regression from measurements of shell lengths and wet body mass from 62 mixed-sex oysters that had been harvested in July). […] (The normal physiological level is 1.5 ng per gram wet weight. So a 5× dosage is 7.5 ng per gram wet weight, […]) Responses to the estradiol treatment were based on visual assessment of gonadal condition, on the response of the excised whole animal to a solution of 0.01 mM 5-hydroxytryptamine during a 45 min treatment period, and on histological examination of samples of the oyster taken through the body mass containing the gonadal region.
The three trials summarized in Table 1 were analyzed using a yes/no non-parametric chi-squared analysis.

[4] = tested on: triploid C. virginica oysters; assay: Triploid oysters: sex, gonadal condition and oocyte yield by stripping after estradiol injection; assay type: in vivo, Crassostrea virginica; details: 150 ng/gm wet weight
Method: In trials with 261 triploid C. virginica oysters that began on May 31 in Grand Isle, La., the oysters were notched and were then injected with 150 ng/gm wet weight estradiol 17β. Ten days later, the animals were sacrificed, and their sex and gonadal condition were determined. Of the 261 animals tested, 13 were confirmed female triploids. These 13 triploid females yielded a total of 6 million oocytes by traditional stripping techniques, which is not a high yield in comparison to diploid animals, but was high compared to untreated triploids.
For comparison, on May 6 of the following year, 165 animals selected from the same original cohort of triploid oysters were sacrificed without the estradiol treatment. […] While these observations were made one year apart, both sets of observations involved triploid animals sharing the same diploid parents. The estradiol-treated group was 2 years old at the time of observation, while the untreated group one year later was 3 years old. […] However, in support of the effectiveness of the treatment, it may be noted that the three-year-old, untreated animals were sacrificed at a time when the population of mature and spawning diploid animals in the same location was at its peak, whereas the two-year-old, estradiol-treated animals were examined when the number of mature and spawning diploids was in decline.

Japanese scallop = details: in vivo; cited from earlier work
[5] = tested on: ovarian pieces of the scallop; details: isolated ovarian pieces in vitro; cited from earlier work
C. gigas = details: cited from earlier work
[6] = Aug. 18, injection 75 ng per gram wet weight
[7] = Sep. 15, injection 7.5 ng per gram wet weight
[8] = Sep. 22, injection 15 ng per gram wet weight

Fc1ccc([C@@H]2CCNC[C@H]2COc2ccc3c(c2)OCO3)cc1 [paroxetine]
induction of spawning [1]: can induce spawning in both sexes

NCCc1c[nH]c2ccc(O)cc12 [serotonin, 5-hydroxytryptamine]
spawning [2]: stimulated spawning in both sexes
induction of spawning [1]: induce both oocyte meiotic maturation and spawning
release of eggs ([3]; pieces of ovary in vitro): the number of released eggs increased significantly

prostaglandin F2α [PGF2α]
effect on serotonin-induced egg release ([3]; pieces of ovary in vitro): significantly inhibited the effect of serotonin

C[C@]12CC[C@@H]3c4ccc(O)cc4CC[C@H]3[C@@H]1CC[C@@H]2O [estradiol-17β]
number with prominent genital canals (oysters; dose 1 group, 37.5 ng/g): 11
number without prominent genital canals (oysters; dose 1 group, 37.5 ng/g): 38
percent with prominent genital canals (oysters; dose 1 group, 37.5 ng/g): 22%
percent without prominent genital canals (oysters; dose 1 group, 37.5 ng/g): 78%
number with prominent genital canals (oysters; dose 2 group, 74 ng/g): 18
number without prominent genital canals (oysters; dose 2 group, 74 ng/g): 35
percent with prominent genital canals (oysters; dose 2 group, 74 ng/g): 34%
percent without prominent genital canals (oysters; dose 2 group, 74 ng/g): 66%
Animals not responding to 5-hydroxytryptophan stimulus - % (C. virginica; [6]): 42%
Animals not responding to 5-hydroxytryptophan stimulus - no. (C. virginica; [6]): 6
Animals responding to 5-hydroxytryptophan stimulus - % (C. virginica; [6]): 58%
Animals responding to 5-hydroxytryptophan stimulus - no. (C. virginica; [6]): 8
Animals not responding to 5-hydroxytryptophan stimulus - % (C. virginica; [7]): 60%
Animals not responding to 5-hydroxytryptophan stimulus - no. (C. virginica; [7]): 12
Animals responding to 5-hydroxytryptophan stimulus - % (C. virginica; [7]): 40%
Animals responding to 5-hydroxytryptophan stimulus - no. (C. virginica; [7]): 8
Animals not responding to 5-hydroxytryptophan stimulus - % (C. virginica; [8]): 65%
Animals not responding to 5-hydroxytryptophan stimulus - no. (C. virginica; [8]): 21
Animals responding to 5-hydroxytryptophan stimulus - % (C. virginica; [8]): 35%
Animals responding to 5-hydroxytryptophan stimulus - no. (C. virginica; [8]): 11
total oocytes yielded by traditional stripping ([4]; 13 triploid females, ten days after injection): 6 million oocytes
confirmed female triploids among animals tested ([4]; of 261 triploid oysters, untreated cohort of 165 had none): 13

CC[C@@H](CO)NC(=O)[C@@H]1C=C2c3cccc4c3c(cn4C)C[C@H]2N(C)C1 [Methysergide]
release of eggs ([3]; pieces of ovary in vitro): inhibited the release of eggs

CNCCC(Oc1ccc(C(F)(F)F)cc1)c1ccccc1 (stereo not drawn) [fluoxetine]
induction of spawning [1]: can induce spawning in both sexes

CCCCC[C@H](O)/C=C/[C@H]1[C@H](O)CC(=O)[C@@H]1C/C=C\CCCC(=O)O [PGE2, prostaglandin E2]
effect on serotonin-induced egg release ([3]; pieces of ovary in vitro): enhanced the effect of serotonin
release of eggs ([3]; pieces of ovary in vitro): did not induce egg release

C[C@]12C[C@H]3S[C@H]3C[C@@H]1CC[C@@H]1[C@@H]2CC[C@]2(C)[C@@H](O)CC[C@@H]12 [epitostanol]
increase of PGE2 and PGF2α in the ovary (Japanese scallop): inhibit the increase of PGE2 and PGF2α

CC(=O)Oc1ccccc1C(=O)O [aspirin]
effect on the accelerating effect of estradiol-17β pre-incubation [5]: inhibited
effect on serotonin-induced egg release ([3]; PGE2 also present): did not inhibit serotonin-induced egg release

C[C@]12CC[C@@H]3c4ccc(OC(=O)c5ccccc5)cc4CC[C@H]3[C@@H]1CC[C@@H]2O [estradiol-3-benzoate]
response time following injection (C. gigas): about 50 days
gonadal-somatic index ratio (C. gigas; high dose injected into the gonad): promoted an increase in the gonadal-somatic index ratio

Cc1c2oc3c(C)ccc(C(=O)N[C@@H]4C(=O)N[C@H](C(C)C)C(=O)N5CCC[C@H]5C(=O)N(C)CC(=O)N(C)[C@@H](C(C)C)C(=O)O[C@@H]4C)c3nc-2c(C(=O)N[C@@H]2C(=O)N[C@H](C(C)C)C(=O)N3CCC[C@H]3C(=O)N(C)CC(=O)N(C)[C@@H](C(C)C)C(=O)O[C@@H]2C)c(N)c1=O [actinomycin D] (I: T[dV]P[Sar][NMeV] / II: T[dV]P[Sar][NMeV]; ester I:1-I:C, II:1-II:C; linker I:N-II:N via Actinocin(9to1))
effect on the accelerating effect of estradiol-17β pre-incubation [5]: inhibited

COc1ccc2c(c1)c(CC(=O)O)c(C)n2C(=O)c1ccc(Cl)cc1 [indomethacin]
effect on serotonin-induced egg release ([3]; PGE2 also present): did not inhibit serotonin-induced egg release

COCCCC/C(=N\OCCN)c1ccc(C(F)(F)F)cc1 [fluvoxamine]
induction of spawning [1]: can induce spawning in both sexes

Source: patent US7013836B1, “Enhancing maturation of oocytes in bivalves” (Board of Supervisors of Louisiana State University and …, priority 2002, dated 2006)
